Test results: patent publication US10112935B2, “Indazolyl thiadiazolamines and related compounds for inhibition of Rho-associated protein kinase and the treatment of disease” (Lycera Corporation, priority 2015, dated 2018)

Legend:
[1] = target: GST-tagged human ROCK1 catalytic domain 1-477 (Homo sapiens (Human), UniProt Q13464); assay: Inhibition of Rho-associated protein kinase isoform 1 (LANCE Ultra ULight-CREBtide FRET kinase assay); assay type: biochemical; conditions: 30 μM was the highest concentration analyzed
Chain of GST-tagged human ROCK1 catalytic domain 1-477 (Q13464 1-477): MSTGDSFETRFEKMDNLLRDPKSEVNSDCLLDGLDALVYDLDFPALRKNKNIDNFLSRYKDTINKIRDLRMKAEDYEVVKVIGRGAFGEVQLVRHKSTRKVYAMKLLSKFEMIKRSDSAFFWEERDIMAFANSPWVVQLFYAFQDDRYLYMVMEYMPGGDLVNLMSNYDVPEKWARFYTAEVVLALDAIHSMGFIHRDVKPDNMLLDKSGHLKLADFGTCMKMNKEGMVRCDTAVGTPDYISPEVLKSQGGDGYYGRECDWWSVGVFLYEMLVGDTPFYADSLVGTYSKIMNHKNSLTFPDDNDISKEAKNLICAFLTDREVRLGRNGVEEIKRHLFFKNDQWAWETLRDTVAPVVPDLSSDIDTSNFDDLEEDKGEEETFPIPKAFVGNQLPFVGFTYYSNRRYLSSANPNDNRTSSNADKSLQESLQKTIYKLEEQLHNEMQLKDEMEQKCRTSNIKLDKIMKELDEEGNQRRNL
Protocol: (§1) Exemplary compounds were tested for ability to inhibit Rho-associated protein kinase isoform 1 (ROCK1) and Rho-associated protein kinase isoform 2 (ROCK2). Assay procedures and results are described below.
(§2) Protein constructs were purified from a baculovirus expression system. The peptide substrate was fluorescent LANCE® Ultra ULight-CREBtide: […] (PerkinElmer, # TRF0107-D). […] After a 90 minute incubation at room temperature on a shaker table, the kinase reaction was stopped by addition of 10 mM EDTA, and phosphorylation of the substrate was detected by adding 1 nM LANCE® Ultra Europium-anti-phospho-CREB (ser133) antibody (PerkinElmer, # TRF0200-D) and incubating for 60 minutes on a shaker at room temperature. The flurorescence resonance energy transfer (FRET) signals were read and analyzed on an Envision™ 2103 Multilabel Reader (Perkin Elmer).

[2] = target: GST-tagged human ROCK2 catalytic domain 1-553 (Homo sapiens (Human), UniProt O75116); assay: Inhibition of Rho-associated protein kinase isoform 2 (LANCE Ultra ULight-CREBtide FRET kinase assay); assay type: biochemical; conditions: for IC50: 30 μM was the highest concentration analyzed; for Selectivity for ROCK2 over ROCK1 (IC50 ROCK1 / IC50 ROCK2): selectivity ROCK2 vs ROCK1
Chain of GST-tagged human ROCK2 catalytic domain 1-553 (O75116 1-553): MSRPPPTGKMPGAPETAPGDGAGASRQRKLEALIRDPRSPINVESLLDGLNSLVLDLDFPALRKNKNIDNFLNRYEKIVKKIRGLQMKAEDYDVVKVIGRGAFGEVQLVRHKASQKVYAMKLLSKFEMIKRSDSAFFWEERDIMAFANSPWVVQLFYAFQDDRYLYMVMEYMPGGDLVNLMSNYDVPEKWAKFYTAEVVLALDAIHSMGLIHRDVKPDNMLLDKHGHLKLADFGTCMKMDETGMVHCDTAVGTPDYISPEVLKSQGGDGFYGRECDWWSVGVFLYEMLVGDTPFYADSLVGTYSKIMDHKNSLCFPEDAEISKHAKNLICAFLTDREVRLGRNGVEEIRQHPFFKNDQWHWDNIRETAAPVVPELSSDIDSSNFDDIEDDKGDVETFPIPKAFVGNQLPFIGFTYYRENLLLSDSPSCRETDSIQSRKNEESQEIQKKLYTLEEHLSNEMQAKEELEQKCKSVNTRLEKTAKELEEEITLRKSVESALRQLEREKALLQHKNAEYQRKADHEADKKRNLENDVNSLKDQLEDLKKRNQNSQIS
Protocol: as §1, §2

Row | Structure (SMILES) | IC50 [1] [µM] | IC50 [2] [µM] | Selectivity for ROCK2 over ROCK1 (IC50 ROCK1 / IC50 ROCK2) [2]
1 | CN1C(=O)Cc2c(-c3nnc(Nc4ccc5[nH]ncc5c4Cl)s3)cccc21.O=C(O)C(F)(F)F [Example 43, 4-(5-((4-Chloro-1H-indazol-5-yl)amino)-1,3,4-thiadiazol-2-yl)-1-methylindolin-2-one 2,2,2-trifluoroacetic Acid Solvate] | 1 to 15 | < 1 | >5
2 | COCCn1ccnc1-c1cccc(-c2nnc(Nc3ccc4[nH]ncc4c3Cl)s2)c1.O=C(O)C(F)(F)F [Example 44, N-(4-Chloro-1H-indazol-5-yl)-5-(3-(1-(2-methoxyethyl)-1H-imidazol-2-yl)phenyl)-1,3,4-thiadiazol-2-amine 2,2,2-trifluoroacetic Acid Solvate] | < 1 | < 1 | >5
3 | O=C(O)C(F)(F)F.OCCn1ccnc1-c1cccc(-c2nnc(Nc3ccc4[nH]ncc4c3Cl)s2)c1 [Example 45A, 2-(2-(3-(5-((4-Chloro-1H-indazol-5-yl)amino)-1,3,4-thiadiazol-2-yl)phenyl)-1H-imidazol-1-yl)ethan-1-ol 2,2,2-trifluoroacetic Acid Solvate] | 1 to 15 | < 1 | >75
4 | CC(C)n1ccnc1-c1cccc(-c2nnc(Nc3ccc4[nH]ncc4c3Cl)s2)c1.O=C(O)C(F)(F)F [Example 46A] | < 1 | < 1 | >5
5 | O=C(O)C(F)(F)F.Oc1cccc(-c2cccc(-c3nnc(Nc4ccc5[nH]ncc5c4Cl)s3)c2)n1 [Example 46B] | > 30 | < 1 | >100
6 | Cc1coc(-c2cccc(-c3nnc(Nc4ccc5[nH]ncc5c4Cl)s3)c2)n1 [Example 46C] | < 1 | < 1 | >5
7 | Cc1coc(-c2cc(F)cc(-c3nnc(Nc4ccc5[nH]ncc5c4Cl)s3)c2)n1 [Example 46D] | > 30 | < 1 | >100
8 | Cn1ccnc1-c1cccc(-c2nnc(Nc3ccc4[nH]ncc4c3Cl)s2)c1.O=C(O)C(F)(F)F [Example 46E] | > 30 | < 1 | >100
9 | CC1(C)COC(c2cccc(-c3nnc(Nc4ccc5[nH]ncc5c4Cl)s3)c2)=N1 [Example 46F] | 1 to 15 | < 1 | >5
10 | COc1cccc(-c2cccc(-c3nnc(Nc4ccc5[nH]ncc5c4Cl)s3)c2)n1 [Example 46H] | > 30 | < 1 | >100
11 | Clc1c(Nc2nnc(-c3cccc(-c4nccs4)c3)s2)ccc2[nH]ncc12 [Example 46I] | > 30 | < 1 | >100
12 | Fc1cc(-c2ncco2)cc(-c2nnc(Nc3ccc4[nH]ncc4c3Cl)s2)c1 [Example 46J] | > 30 | < 1 | >100
13 | NC(=O)c1cc(-c2ncco2)cc(-c2nnc(Nc3ccc4[nH]ncc4c3Cl)s2)c1 [Example 46L] | > 30 | < 1 | >100
14 | CC(=O)Nc1cc(-c2ncco2)cc(-c2nnc(Nc3ccc4[nH]ncc4c3Cl)s2)c1.O=C(O)C(F)(F)F [Example 46M] | > 30 | < 1 | >100
15 | O=C(O)C(F)(F)F.O=C(O)c1cc(-c2ncco2)cc(-c2nnc(Nc3ccc4[nH]ncc4c3Cl)s2)c1 [Example 46N] | < 1 | < 1 | >5
16 | Clc1c(Nc2nnc(-c3cccc(-c4ncco4)c3)s2)ccc2[nH]ncc12 [Example 46O] | > 30 | < 1 | >100
17 | Clc1c(Nc2nnc(-c3cncc(-c4ncco4)c3)s2)ccc2[nH]ncc12 [Example 46P] | > 30 | < 1 | >100
18 | CC(=O)Nc1cc(CSC(C)=O)cc(-c2nnc(Nc3ccc4[nH]ncc4c3Cl)s2)c1 [Example 47, (S)-(3-Acetamido-5-(5-((4-chloro-1H-indazol-5-yl)amino)-1,3,4-thiadiazol-2-yl)benzyl)ethanethioate] | > 30 | < 1 | >100
19 | Cn1cc(C(=O)Nc2cc(C(=O)O)cc(-c3nnc(Nc4ccc5[nH]ncc5c4Cl)s3)c2)cn1 [Example 48AC] | < 1 | < 1 | >5
20 | CC(=O)Nc1cc(C(=O)O)cc(-c2nnc(Nc3ccc4[nH]ncc4c3)s2)c1 [Example 48AE] | < 1 | < 1 | 
21 | CCN(CC)Cc1cc(NC(C)=O)cc(-c2nnc(Nc3ccc4[nH]ncc4c3Cl)s2)c1.O=C(O)C(F)(F)F [Example 48A] | 1 to 15 | < 1 | >5

Row | Structure (SMILES) | IC50 [1] [µM] | IC50 [2] [µM] | Selectivity for ROCK2 over ROCK1 (IC50 ROCK1 / IC50 ROCK2) [2]
22 | CC(=O)Nc1cc(CN2CCN(C)CC2)cc(-c2nnc(Nc3ccc4[nH]ncc4c3Cl)s2)c1.O=C(O)C(F)(F)F [Example 48B] | 1 to 15 | < 1 | >50
23 | CC(=O)Nc1cc(CN(C)C)cc(-c2nnc(Nc3ccc4[nH]ncc4c3Cl)s2)c1.O=C(O)C(F)(F)F [Example 48C] | 1 to 15 | < 1 | >5
24 | CC(=O)Nc1cc(CN2CCOCC2)cc(-c2nnc(Nc3ccc4[nH]ncc4c3Cl)s2)c1.O=C(O)C(F)(F)F [Example 48D] | 1 to 15 | < 1 | >5
25 | CC(=O)Nc1ccc(S(C)(=O)=O)c(-c2nnc(Nc3ccc4[nH]ncc4c3Cl)s2)c1 [Example 48E] | 15 to 30 | 1 to 15 | <5
26 | CSc1ccc(NC(C)=O)cc1-c1nnc(Nc2ccc3[nH]ncc3c2Cl)s1 [Example 48F] | < 1 | < 1 | >5
27 | CC(=O)Nc1cc(CO)cc(-c2nnc(Nc3ccc4[nH]ncc4c3Cl)s2)c1 [Example 48H] | < 1 | < 1 | >50
28 | CC(=O)Nc1ccc(C)c(-c2nnc(Nc3ccc4[nH]ncc4c3Cl)s2)c1.O=C(O)C(F)(F)F [Example 48I] | < 1 | < 1 | >5
29 | COc1ccc(NC(C)=O)cc1-c1nnc(Nc2ccc3[nH]ncc3c2Cl)s1 [Example 48J] | < 1 | < 1 | >5
30 | CC(=O)Nc1cc(-c2nnc(Nc3ccc4[nH]ncc4c3Cl)s2)cc(C(F)(F)F)c1 [Example 48K] | > 30 | < 1 | >100
31 | CC(=O)Nc1cc(-c2nnc(Nc3ccc4[nH]ncc4c3Cl)s2)ccc1CN(C)C [Example 48L] | 1 to 15 | < 1 | >5
32 | O=C(Nc1cc(-c2nnc(Nc3ccc4[nH]ncc4c3Cl)s2)ccc1C(F)(F)F)c1cnn(CCO)c1 [Example 48M] | < 1 | < 1 | >5
33 | Cn1cc(C(=O)Nc2cc(-c3nnc(Nc4ccc5[nH]ncc5c4Cl)s3)ccc2C(F)(F)F)cn1 [Example 48N] | > 30 | < 1 | >100
34 | CC(=O)Nc1cc(-c2nnc(Nc3ccc4[nH]ncc4c3Cl)s2)ccc1C(F)(F)F [Example 48O] | > 30 | < 1 | >100
35 | CC(=O)Nc1cc(-c2nnc(Nc3ccc4[nH]ncc4c3Cl)s2)ccc1-c1ncco1 [Example 48P] | > 30 | < 1 | >100
36 | CC(=O)Nc1cc(C(=O)N2CCC(C(=O)O)CC2)cc(-c2nnc(Nc3ccc4[nH]ncc4c3Cl)s2)c1 [Example 48Q] | 1 to 15 | < 1 | >5
37 | Cn1cc(C(=O)Nc2cc(CC(=O)O)cc(-c3nnc(Nc4ccc5[nH]ncc5c4Cl)s3)c2)cn1 [Example 48R] | < 1 | < 1 | >5
38 | CC(=O)Nc1cc(C(=O)NCC(O)CO)cc(-c2nnc(Nc3ccc4[nH]ncc4c3Cl)s2)c1 (centres unmarked) [Example 48W] | < 1 | < 1 | >5
39 | Cn1cc(C(=O)Nc2cc(-c3nnc(Nc4ccc5[nH]ncc5c4Cl)s3)ccc2Br)cn1 [Example 48Y] | > 30 | < 1 | >100
40 | c1cc(-c2nnc(Nc3ccc4[nH]ncc4c3)s2)c2nccn2c1 [Example 49, 5-Imidazo[1,2-a]pyridin-8-yl-N-(1H-indazol-5-yl)-1,3,4-thiadiazol-2-amine 2,2,2-trifluoroacetic Acid Solvate] | < 1 | < 1 | >5
41 | CCc1cn2cccc(-c3nnc(Nc4ccc5[nH]nc(C)c5c4)s3)c2n1 [Example 50A] | 1 to 15 | < 1 | >5
